What was measured:
[1] = biological target: T1, rALRase (recombinant alanine racemase of Lactobacillus sakei ZH-2) (Latilactobacillus sakei, UniProt Q38V64, T117A); assay: racemase activity with and without PLP, D-amino acid oxidase/LDH-coupled; type: biochemical; conditions: L-alanine substrate; 10 mM PLP in the standard assay, pH 9.0
T1 construct: gene alr; pCold I in E. coli BL21, His-tag purified, tag removed with Factor Xa

purified protein = substrate: C[C@H](N)C(=O)O; assay: purified protein; conditions: L-alanine 0.1-50 mM, L to D direction, standard assay 50 mM CHES-NaOH pH 9.0, 10 mM PLP, 37 °C

Molecule	fold activity with PLP versus without [1]	Km (purified protein) [µM]
Cc1ncc(COP(=O)(O)O)c(C=O)c1O [pyridoxal phosphate]	1.5–2 times	–
rALRase (recombinant alanine racemase of Lactobacillus sakei ZH-2) (Latilactobacillus sakei subsp. sakei 23K; T117A) (protein) MTVGYLRPTRILVDQNAIYENIQNELKHLEGTDTVIFPVLKANAYGHGLIPVAEAAQAAGAAGFCVALLDEALALRRANFTEPILVLGITQPSEIELAAANQISLTVGSLEWLQEAAAIAQQVPYLHPVPIHLSIDSGMGRIGMRDEAELLAAYTFIKAHSDYFDFEGVFTHFATADDPDDTYFKEQSARFNQLMTALPERPRFVHVSNSATSLWHAACNGNIIRMGISLYGLNPSGNAIPDLPYPLKQALGIESELVFVKQVAAGTKIGYGATYEASEGEWIGTIPMGYADGWLRRMQGSTVLVDGQRCEIVGRICMDQMMIRLPKRYPVGTKVVFVGKSGDDEITLQEVADYADTIHYEIICDLSDRIPRVYTGLNEH	–	1320

— PMC10420772, “Characteristics of alanine racemase in Lactobacillus sakei ZH‐2 strain” (Food Science & Nutrition, 2023)
